Measured values published in ChEMBL document CHEMBL4811243, “Design, synthesis, and biological evaluation of a novel dual peroxisome proliferator-activated receptor alpha/delta agonist for the treatment of diabetic kidney disease through anti-inflammatory mechanisms” (Eur J Med Chem, 2021).

What was measured:
[1] = molecular target: T1, Peroxisome proliferator-activated receptor alpha (Homo sapiens, UniProt Q07869); assay: Agonist activity at human Gal4 fused PPARalpha LBD expressed in COS-7 cells incubated for 24 hrs by firefly luciferase reporter gene assay; format: cell-based
T1 sequence (Q07869 whole entry): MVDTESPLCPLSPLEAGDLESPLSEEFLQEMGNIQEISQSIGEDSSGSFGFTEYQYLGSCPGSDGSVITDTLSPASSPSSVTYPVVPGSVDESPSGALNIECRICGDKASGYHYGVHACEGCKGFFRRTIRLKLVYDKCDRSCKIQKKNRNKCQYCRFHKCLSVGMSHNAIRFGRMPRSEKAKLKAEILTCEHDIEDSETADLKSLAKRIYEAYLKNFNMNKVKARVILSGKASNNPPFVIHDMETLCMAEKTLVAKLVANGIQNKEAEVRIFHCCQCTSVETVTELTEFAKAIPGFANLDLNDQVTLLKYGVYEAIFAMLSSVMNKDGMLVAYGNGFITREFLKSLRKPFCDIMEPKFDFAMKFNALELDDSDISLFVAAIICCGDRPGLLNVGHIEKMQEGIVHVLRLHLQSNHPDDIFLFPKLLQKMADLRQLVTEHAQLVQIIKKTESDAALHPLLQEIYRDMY

[2] = molecular target: T2, Peroxisome proliferator-activated receptor gamma (Homo sapiens, UniProt P37231); assay: Agonist activity at human Gal4 fused PPARgamma LBD expressed in COS-7 cells incubated for 24 hrs by firefly luciferase reporter gene assay; format: cell-based
T2 sequence (P37231 whole entry): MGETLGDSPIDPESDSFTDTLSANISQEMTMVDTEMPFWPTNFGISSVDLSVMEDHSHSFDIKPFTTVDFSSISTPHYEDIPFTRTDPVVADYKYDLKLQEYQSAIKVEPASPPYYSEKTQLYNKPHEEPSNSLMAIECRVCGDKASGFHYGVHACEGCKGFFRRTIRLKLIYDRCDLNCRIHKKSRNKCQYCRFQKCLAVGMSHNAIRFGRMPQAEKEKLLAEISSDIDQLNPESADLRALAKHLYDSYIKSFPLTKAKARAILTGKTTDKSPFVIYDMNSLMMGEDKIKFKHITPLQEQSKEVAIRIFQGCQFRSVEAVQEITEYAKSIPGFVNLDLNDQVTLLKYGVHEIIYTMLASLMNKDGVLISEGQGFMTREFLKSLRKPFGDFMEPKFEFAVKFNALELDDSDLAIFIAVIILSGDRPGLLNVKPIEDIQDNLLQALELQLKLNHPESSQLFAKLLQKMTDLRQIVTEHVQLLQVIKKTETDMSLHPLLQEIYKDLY

[3] = molecular target: T3, Peroxisome proliferator-activated receptor delta (Homo sapiens, UniProt Q03181); assay: Agonist activity at human Gal4 fused PPARdelta LBD expressed in COS-7 cells incubated for 24 hrs by firefly luciferase reporter gene assay; format: cell-based
T3 sequence (Q03181 whole entry): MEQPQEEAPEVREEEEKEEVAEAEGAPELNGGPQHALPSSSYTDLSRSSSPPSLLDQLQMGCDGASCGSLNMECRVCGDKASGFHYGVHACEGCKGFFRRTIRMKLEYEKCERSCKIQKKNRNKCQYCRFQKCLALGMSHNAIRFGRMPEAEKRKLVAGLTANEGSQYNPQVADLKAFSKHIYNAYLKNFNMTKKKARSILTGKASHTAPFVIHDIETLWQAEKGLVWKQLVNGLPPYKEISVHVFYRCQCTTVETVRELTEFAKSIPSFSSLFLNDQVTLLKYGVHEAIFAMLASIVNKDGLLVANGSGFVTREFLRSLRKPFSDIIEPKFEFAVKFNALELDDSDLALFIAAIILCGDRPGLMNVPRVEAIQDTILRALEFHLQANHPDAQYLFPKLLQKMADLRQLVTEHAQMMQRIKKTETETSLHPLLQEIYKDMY

[4] = Hepatotoxicity in STZ-induced Sprague-Dawley rat diabetic kidney disease model assessed as serum ALT level at 25 to 50 mg/kg, po administered twice a day for 6 weeks; format: toxicity, organism-based; settings: in vivo, 1008 h, dose 25-50 mg/kg
[5] = Hepatotoxicity in STZ-induced Sprague-Dawley rat diabetic kidney disease model assessed as serum AST level at 25 to 50 mg/kg, po administered twice a day for 6 weeks; format: toxicity, organism-based; settings: in vivo, 1008 h, dose 25-50 mg/kg
[6] = Cytotoxicity against human GMCs assessed as reduction in cell viability at 1 to 30 uM after 48 hrs by CCK-8 assay; format: tissue-based; settings: glomerular mesangial cell, dose 1-30 µM
THP-1 = assay: Cytotoxicity against human THP-1 assessed as reduction in cell viability at 1 to 30 uM after 48 hrs by CCK-8 assay; format: cell-based; settings: thp-1, 48 h, dose 1-30 µM

Structure (SMILES)	EC50 [1]	EC50 [2]	other results
Cc1cc(COc2ccc3c(c2)O/C(=C\c2ccc(C#N)cc2)C3=O)cc(C)c1OC(C)(C)C(=O)O	–	> 10 µM	–
Cc1cc(COc2ccc3c(c2)O/C(=C\c2ccc4ccccc4c2)C3=O)cc(C)c1OC(C)(C)C(=O)O	–	> 10 µM	–
Cc1cc(COc2ccc3c(c2)O/C(=C\c2ccc(C(F)(F)F)cc2)C3=O)cc(C)c1OC(C)(C)C(=O)O	–	–	Activity [4]: Non-Toxic; Activity [5]: Non-Toxic; Activity [6]: Non-Toxic; Activity (THP-1): Non-Toxic
Cc1cc(COc2ccc3c(c2)O/C(=C\c2ccccc2C(F)(F)F)C3=O)cc(C)c1OC(C)(C)C(=O)O	–	> 10 µM	–
CCOc1ccc(/C=C2\Oc3cc(OCc4cc(C)c(OC(C)(C)C(=O)O)c(C)c4)ccc3C2=O)cc1	> 10 µM	> 10 µM	–

More lines, main results first:

EC50 [1]	EC50 [2]	Structure (SMILES)	other results
> 10 µM	> 10 µM	COc1ccc(/C=C2\Oc3cc(OCc4cc(C)c(OC(C)(C)C(=O)O)c(C)c4)ccc3C2=O)cc1	–
–	> 10 µM	Cc1cc(COc2ccc3c(c2)O/C(=C\c2ccc(Cl)cc2)C3=O)cc(C)c1OC(C)(C)C(=O)O	–
> 10 µM	> 10 µM	Cc1cc(COc2ccc3c(c2)O/C(=C\c2ccc(F)cc2)C3=O)cc(C)c1OC(C)(C)C(=O)O	EC50 [3]: > 10 µM
0.76 µM	2.79 µM	CSc1ccc(C(=O)/C=C/c2cc(C)c(OC(C)(C)C(=O)O)c(C)c2)cc1 [ELAFIBRANOR]	–
–	> 10 µM	Cc1cc(COc2ccc3c(c2)O/C(=C\c2ccc(Br)cc2)C3=O)cc(C)c1OC(C)(C)C(=O)O	–
–	> 10 µM	Cc1ccc(/C=C2\Oc3cc(OCc4cc(C)c(OC(C)(C)C(=O)O)c(C)c4)ccc3C2=O)cc1	–
–	> 10 µM	Cc1cc(COc2ccc3c(c2)O/C(=C\c2ccccc2)C3=O)cc(C)c1OC(C)(C)C(=O)O	–
–	> 10 µM	Cc1cc(COc2ccc3c(c2)O/C(=C\c2ccc(C(C)C)cc2)C3=O)cc(C)c1OC(C)(C)C(=O)O	–
